Assay results as given in PMC7098565 (PLoS ONE, 2020).
Values joined by “and” are separate entries in the source; they are usually repeats but may differ in a detail not shown here. Equal values may be shown once. Read-outs that look alike come from different tables or passages of the source.

How the values were obtained:
B16-F10 = test: Cytotoxicity to tumor cells, MTT assay; assay type: cell-based; settings: Mus musculus, 24 h, mean ± S.D (n = 3), read-out: IC50 B16F10
CT26.WT = test: Cytotoxicity to tumor cells, MTT assay; assay type: cell-based; settings: Mus musculus, mean ± S.D (n = 3)
Description: Mouse melanoma cell line B16-F10 (ATCC® Number: CRL-6475™) and mouse cell line CT26.WT (TCM37) were obtained from Cell Culture Center of the Institute of Basic Medical Sciences, Chinese Academy of Medical Sciences. The cells were maintained in DMEM supplemented with 10% (v/v) heat-inactivated fetal bovine serum (FBS) in a humidified 5% CO2 atmosphere at 37 °C. Tumor cells were plated in 96-well plate with a density of 5 × 10^3 cells/well in 100 μL. […] The medium was subsequently discarded, and 150 μL of DMSO was added to dissolve the formazan crystals. The absorbance was measured at 570 nm using a Molecular Devices Spectra Max M5 (Molecular Devices, USA).

Human CD3+ cells [1] = test: Cytotoxicity to human CD3+ cells, CellTiter-Glo (CTG) assay; assay type: cell-based; settings: 72 h, aCD3/aCD28 1 μg/mL, mean ± S.D (n = 3)
Description: Human CD3^+ cells with the purity above 95% were provided by LDEBIO company (Guangzhou, China). CD3^+ cells were plated in the 96-well plate with a density of 1 × 10^5 cells/well in 100 μL of DMEM medium containing 10% FBS. The 50 μL of anti-CD3 antibody and anti-CD28 antibody (aCD3 and aCD28, final concentration of 1 μg/mL for each) were added into 96-well plate. […] CellTiter-Glo (CTG) reagent was added into the wells to measure CD3^+ cell viability.

Human CD3+ cells [2] = test: IFN-γ secretion by human CD3+ cells in vitro (ELISA), rescue of PD-L1-mediated inhibition; assay type: cell-based; settings: for IFN-γl: aCD3/aCD28 1 μg/mL + PD-L1 protein 10 nM, 72 h, single samples
Description: Human CD3^+ cells were plated in the 96-well plate with a density of 1 × 10^5 cells/well in 100 μL of DMEM containing 10% FBS. The 50 μL of aCD3 and aCD28 (final concentration of 1 μg/mL for each) were added into 96-well plate without or with 50 μL of human PD-L1 protein (final concentation of 10 nM). […] The supernatants were collected for detection of IFN-γ by using human IFN-γ ELISA Kit.

B16-F10 tumors = test: B16-F10 tumor isograft model, tumor growth; assay type: in vivo, mice; settings: for Tumor volume / Tumor weight: single mice
IFN-γ = test: Plasma IFN-γ level in melanoma-bearing mice (ELISA); assay type: in vivo
T lymphocytes in tumors = test: Flow cytometry of T lymphocytes in tumors from melanoma-bearing mice; assay type: in vivo; settings: for % Treg of CD4^+ / % CD3^+ of lymphocyte / % CD4^+ of CD3^+ / % CD8^+ of CD3^+ / % CD8^+IFN-γ of CD3D^+CD8^+: tumor, day 20, single mice; for % Treg of CD4^+: Treg = CD4+CD25+CD127low/-
[3] = Pharmacokinetics in plasma and tumor from melanoma-bearing mice (LC-MS/MS); assay type: in vivo; settings: single oral dose 60 mg/kg; for concentration at 1 h / concentration at 3 h: male, C57BL/6NCrl, mouse, plasma, po; for concentration at 1 h / concentration at 3 h / Concentration in Tumor: 60 mg/kg
Description: At 1h, 3h and 8h after the dosing, 5 mice were decapitated, respectively, for collecting plasma and tumor tissues. All plasma samples were centrifuged for 10 min at 3000 g, separated and stored at -20 °C for followed analysis. The tumor tissues were homogenated in water (w/v = 1:4). The LC-MS/MS system consisted of an Agilent 1100 series HPLC system (Agilent Technologies, Waldbronn, USA) and a TSQ Quantum Assess tandem mass spectrometer (Thermo Electron Corporation, San Jose, CA, USA) equipped with ESI ion source operation in the positive mode. Data acquisition and processing were accomplished using the Xcaliber workstation. The chromatography separation was performed on a Waters symmetry CLU columns (150 × 2.1 mm i.e., 3.5 am, Warders, USA) with the flow rate of 0.2 ml/min in isocratic elution. The mobile phase consisted of acetonitrile-methanol-water (50:30:20, v/v/v) containing 0.1 mm ammonium acetate and 0.01% glacial acetic acid. The selective reactions monitoring mode was used to detect the analyses. […] The spray voltage was 4 kv. Sheath gas and auxilinry gas were 30 and 5 psi, respectively. The capillary temperature was 350 °C and argon gas pressure was 1.5 milli-Torr.

PD-1 and PD-L1 binding = biological target: PD-1 and PD-L1 binding; design: method as in PMID 27083005; settings: HTRF binding assay; cited from earlier work
[4] = 30 mg/kg oral twice daily, day 20
[5] = treatment groups (30 and 60 mg/kg), P < 0.05, n = 6

COc1nc(OCc2cccc(-c3ccccc3)c2C)ccc1CNCCNC(C)=O [PCC0208025, N-(2-{[2-Methoxy-6-(2-methyl-biphenyl-3-ylmethoxy)-pyridin-3-ylmethyl]-amino}-ethyl)-acetamide]
IC50 (B16-F10): 32.1 ± 2.3 µM | IC50 (CT26.WT; 24 h): 21.9 ± 2.9 µM | IC50 (CT26.WT; 48 h): 15.3 ± 3.4 µM | IC50 (Human CD3+ cells [1]): 10.3 ± 1.3 µM | PD-L1-mediated inhibition of IFN-γ production (Human CD3+ cells [2]; 0.01 to 1 μM, vs aCD3/aCD28 and PD-L1 group, P < 0.05, n = 6): markedly rescued | IFN-γl (Human CD3+ cells [2]; substance 0.1 mM (so in the source)): 768.3 pg/mL and 1056.6 pg/mL and 850.5 pg/mL and 945.6 pg/mL and 689.7 pg/mL and 789.4 pg/mL | IFN-γl (Human CD3+ cells [2]; substance 1 mM (so in the source)): 798.3 pg/mL and 824.3 pg/mL and 997.0 pg/mL and 723.5 pg/mL and 908.8 pg/mL and 857.7 pg/mL | IFN-γl (Human CD3+ cells [2]; substance 10 mM (so in the source)): 468.7 pg/mL and 398.5 pg/mL and 576.3 pg/mL and 435.3 pg/mL and 587.5 pg/mL and 523.4 pg/mL | tumor weight compared with the control group (B16-F10 tumors; 30 mg/kg and 60 mg/kg, P < 0.05, n = 8): significantly decreased | tumor volumes compared with the control group (B16-F10 tumors; 30 mg/kg and 60 mg/kg, day 20, P < 0.05, n = 8): significantly decreased | Tumor volume (B16-F10 tumors; 30 mg/kg oral twice daily, day 7): 99.3 mm^3 and 102.9 mm^3 and 86.2 mm^3 and 112.1 mm^3 and 129.3 mm^3 and 84.9 mm^3 and 90.7 mm^3 and 100.1 mm^3 | Tumor volume (B16-F10 tumors; 30 mg/kg oral twice daily, day 9): 94.0 mm^3 and 102.4 mm^3 and 154.1 mm^3 and 112.8 mm^3 and 131.0 mm^3 and 131.8 mm^3 and 105.3 mm^3 and 143.3 mm^3 | Tumor volume (B16-F10 tumors; [4]): 898.0 mm^3 and 1417.3 mm^3 and 1288.9 mm^3 and 1376.0 mm^3 and 1578.0 mm^3 and 1342.0 mm^3 and 1122.6 mm^3 and 879.0 mm^3 | Tumor weight (B16-F10 tumors; [4]): 1578.0 mg | IR (inhibition rate of tumor growth) according to tumor weight (B16-F10 tumors; 60 mg/kg oral gavage twice daily, day 20): 50.1% | Tumor volume (B16-F10 tumors; 60 mg/kg oral twice daily, day 7): 88.0 mm^3 and 80.2 mm^3 and 120.2 mm^3 and 108.0 mm^3 and 102.8 mm^3 and 96.6 mm^3 and 115.1 mm^3 and 94.6 mm^3 | Tumor weight (B16-F10 tumors; 60 mg/kg oral twice daily, day 20): 1678.4 mg | IFN-γ level in plasma (IFN-γ; 60 mg/kg oral twice daily, day 20, single mice): 1678.5 pg/mL and 1589.6 pg/mL and 1467.7 pg/mL and 1256.8 pg/mL and 1756.2 pg/mL and 1476.1 pg/mL | plasma IFN-γ levels compared with the control group (IFN-γ; 30 and 60 mg/kg, P < 0.05, n = 6): markedly elevated | percentage of CD4^+CD25^+CD127^low/− (Treg) in tumor compared with the control group (T lymphocytes in tumors; 30 mg/kg and 60 mg/kg, P < 0.05, n = 6): significantly decreased | percentage of CD3^+CD4^+ T cells in tumor compared with the control group (T lymphocytes in tumors; 60 mg/kg group, P < 0.05, n = 6): significant decreases | percentage of CD3^+ T cells in tumor compared with the control group (T lymphocytes in tumors; [5]): markedly increased | percentage of CD3^+CD8^+ T cells in tumor compared with the control group (T lymphocytes in tumors; [5]): markedly increased | percentage of CD8^+IFN-γ^+ T cells in tumor compared with the control group (T lymphocytes in tumors; [5]): markedly increased | % Treg of CD4^+ (T lymphocytes in tumors; 30 mg/kg, 30 mg/kg): 26.25% and 33.66% and 35.98% and 35.44% and 36.86% and 31.41% | % CD3^+ of lymphocyte (T lymphocytes in tumors; 30 mg/kg, 30 mg/kg): 58.95% and 61.13% and 52.42% and 62.48% and 58.92% and 54.72% | % CD4^+ of CD3^+ (T lymphocytes in tumors; 30 mg/kg, 30 mg/kg): 38.97% and 39.86% and 36.50% and 29.65% and 37.02% and 40.10% | % CD8^+ of CD3^+ (T lymphocytes in tumors; 30 mg/kg, 30 mg/kg): 38.80% and 39.05% and 45.77% and 42.49% and 39.23% and 36.71% | % CD8^+IFN-γ of CD3D^+CD8^+ (T lymphocytes in tumors; 30 mg/kg, 30 mg/kg): 27.98% and 25.40% and 24.84% and 24.39% and 22.29% and 22.23% | % Treg of CD4^+ (T lymphocytes in tumors; 60 mg/kg, 60 mg/kg): 32.63% and 30.22% and 32.76% and 31.72% and 28.26% | % CD3^+ of lymphocyte (T lymphocytes in tumors; 60 mg/kg, 60 mg/kg): 72.64% and 70.58% and 61.04% and 62.21% and 61.98% and 64.77% | % CD4^+ of CD3^+ (T lymphocytes in tumors; 60 mg/kg, 60 mg/kg): 36.42% and 31.49% and 39.77% and 27.21% and 38.87% and 37.34% | % CD8^+ of CD3^+ (T lymphocytes in tumors; 60 mg/kg, 60 mg/kg): 40.72% and 50.51% and 43.82% and 50.59% and 42.04% and 42.77% | % CD8^+IFN-γ of CD3D^+CD8^+ (T lymphocytes in tumors; 60 mg/kg, 60 mg/kg): 30.80% and 35.94% and 30.46% and 29.24% and 28.35% and 27.49% | concentration at 1 h ([3]; 1h, n = 5, read-out: average concentration in plasma): ~4.36 nM | concentration at 1 h ([3]; 1h, single mice, read-out: Concentration in Plasma): 3.8 nM | concentration at 3 h ([3]; 3h, n = 5, read-out: average concentration in plasma): ~3.94 nM | concentration at 3 h ([3]; 3h, single mice, read-out: Concentration in Plasma): 4.16 nM | average concentration in tumor ([3]; 1h, n = 5): about 160.7 nmol/kg | Concentration in Tumor ([3]; 1h, single mice): 167.3 nmol/kg and 207.3 nmol/kg and 154.8 nmol/kg and 139.1 nmol/kg and 136.3 nmol/kg | average concentration in tumor ([3]; 3h, n = 5): ~196.7 nmol/kg | Concentration in Tumor ([3]; 3h, single mice): 185.3 nmol/kg and 206.5 nmol/kg and 218.5 nmol/kg and 178.7 nmol/kg | average concentration in tumor ([3]; 8h, n = 5): ~127.3 nmol/kg | Concentration in Tumor ([3]; 8h, single mice): 132.4 nmol/kg and 146.7 nmol/kg and 123.3 nmol/kg and 103.8 nmol/kg and 133.2 nmol/kg | IC50 (PD-1 and PD-L1 binding): 0.018 µM
